Some test systems named below: NCI/ADR-RES ovarian; UACC-257 melanoma; M14 melanoma; RPMI-8226 leukemia; NCI-H460 lung; MCF7 breast; SR leukemia; SK-MEL-28 melanoma; SK-MEL-5 melanoma.
What all share (experiment): DTP human tumour cell line panel, 48 h

This passage reports TGI and GI50 results from PubChem BioAssay (NCI).

Where “and” joins values, the source holds several entries; their conditions need not be identical. Equal entries are not always repeated.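 Where inhibition never reached the appropriate level, the endpoint shown equals the highest concentration tested. Otherwise, values were interpolated linearly from a five-concentration, 48-hour dose response in 96-well plates. The concentration for 50% growth inhibition is given as GI50. TGI marks complete inhibition of growth.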

One may read the TGI as the concentration at which net growth stops. `Cc1c2cc[n+](C)cc2c(C)c2c1sc1ccccc12`: the TGI is > 100 µM in the experiment on NCI/ADR-RES ovarian; 7.01 µM with UACC-257 melanoma; 14.2 µM in the experiment on M14 melanoma; 5.68 µM in the experiment with RPMI-8226 leukemia; 6.02 µM in the experiment on NCI-H460 lung; 41.8 µM in the experiment with MCF7 breast. Also, the TGI in the experiment with SR leukemia was determined as 9.54 µM; in the experiment with SK-MEL-28 melanoma it was 6.15 µM; in the experiment with SK-MEL-5 melanoma, 4.56 µM.

One may read the GI50 as the concentration giving 50% growth inhibition. Turning to `C/C(=N\NC(=O)c1sc(=S)n(C)c1N)c1cc2ccccc2o1`, the GI50 is 11 µM in the experiment with NCI/ADR-RES ovarian; 12.8 µM in the experiment on UACC-257 melanoma; 14.7 µM with M14 melanoma; 12.5 µM in the experiment on RPMI-8226 leukemia; 5.89 µM with NCI-H460 lung; 12.3 µM in the experiment with MCF7 breast. For the same molecule, the figures for the GI50 with SR leukemia, with SK-MEL-28 melanoma and in the experiment with SK-MEL-5 melanoma were 8.04 µM, 21.6 µM and 10.8 µM, respectively. Moreover, the total growth inhibition concentration (TGI) in the experiment with NCI/ADR-RES ovarian is 26 µM; with UACC-257 melanoma, 33.4 µM; with M14 melanoma it was 40.5 µM; in the experiment on RPMI-8226 leukemia, 49.4 µM; in the experiment with NCI-H460 lung, 24.1 µM; in the experiment with MCF7 breast, 30.4 µM. For the same molecule, the total growth inhibition concentration (TGI) was 22 µM in the experiment with SR leukemia, > 100 µM with SK-MEL-28 melanoma and 30.1 µM in the experiment with SK-MEL-5 melanoma.

With `CCSCC1CC(O)(c2ccccc2)C(c2ccccc2)C(c2ccc(Cl)cc2)O1` (stereo not drawn), the GI50 in the experiment with NCI/ADR-RES ovarian was 1.97 µM; in the experiment on UACC-257 melanoma, 1.83 µM; in the experiment with M14 melanoma it was 1.81 µM; in the experiment on RPMI-8226 leukemia, 1.56 µM; with NCI-H460 lung, 1.42 µM; in the experiment with MCF7 breast it was 1.85 µM. Also, the GI50 in the experiment on SR leukemia was 2.15 µM; with SK-MEL-28 melanoma, 1.79 µM; in the experiment with SK-MEL-5 melanoma, 1.64 µM. For the same molecule, the TGI was found to be 5.34 µM with NCI/ADR-RES ovarian; 3.95 µM with UACC-257 melanoma; 3.4 µM with M14 melanoma; 4.66 µM with RPMI-8226 leukemia; 3.44 µM with NCI-H460 lung; 5.35 µM in the experiment on MCF7 breast. The TGI in the experiment on SR leukemia was found to be 5.99 µM; in the experiment with SK-MEL-28 melanoma, 4.19 µM; with SK-MEL-5 melanoma it was 3.01 µM.

As to `CC[C@]12CCCN3CCc4c(n(c5ccccc45)C(=O)C1)[C@@H]32`, the total growth inhibition concentration (TGI) in the experiment on NCI/ADR-RES ovarian is > 34.5 µM; in the experiment with UACC-257 melanoma, > 100 µM; in the experiment on M14 melanoma, > 65.5 µM; in the experiment on RPMI-8226 leukemia it was > 65.1 µM; in the experiment with NCI-H460 lung, > 100 µM; in the experiment with MCF7 breast it was > 100 µM. In addition, the TGI with SR leukemia is 18 µM; in the experiment with SK-MEL-28 melanoma, > 100 µM; with SK-MEL-5 melanoma it was > 35.1 µM.

In the case of `CCN1CCN(Cc2ccc(-c3cc4c(N[C@H](C)c5ccccc5)ncnc4[nH]3)cc2)CC1`, the GI50 in the experiment on NCI/ADR-RES ovarian was 4.69 µM and 4.78 µM; with UACC-257 melanoma it was 1.76 µM and 1.83 µM; in the experiment on M14 melanoma it was 1.84 µM and 1.92 µM; in the experiment on RPMI-8226 leukemia, 3.54 µM and 2.13 µM; in the experiment on NCI-H460 lung it was 5.55 µM and 6.86 µM; with MCF7 breast, 2.78 µM and 2.68 µM. Further, the GI50 in the experiment with SR leukemia was 2.34 µM and 2.05 µM; in the experiment with SK-MEL-28 melanoma it was 1.96 µM and 1.98 µM; in the experiment on SK-MEL-5 melanoma, 1.76 µM and 1.72 µM. Besides, the total growth inhibition concentration (TGI) was 29.9 µM and > 10 µM in the experiment with NCI/ADR-RES ovarian; 3.38 µM and 3.41 µM in the experiment on UACC-257 melanoma; 3.77 µM and 4.4 µM with M14 melanoma; 13.4 µM and 6.94 µM in the experiment on RPMI-8226 leukemia; 23.3 µM and > 10 µM with NCI-H460 lung; 15.9 µM and > 10 µM in the experiment on MCF7 breast. For the same molecule, the total growth inhibition concentration (TGI) in the experiment with SR leukemia was 6.17 µM and 4.92 µM; in the experiment with SK-MEL-28 melanoma it was 3.93 µM and 4.26 µM; with SK-MEL-5 melanoma, 3.68 µM and 3.88 µM.

In the case of `CCCCON(OC(=O)c1ccccc1)C(=O)c1ccccc1`, the GI50 in the experiment on NCI/ADR-RES ovarian, in the experiment on UACC-257 melanoma, in the experiment with M14 melanoma, with RPMI-8226 leukemia, in the experiment on NCI-H460 lung and with MCF7 breast was > 100 µM each time. Further, the GI50 in the experiment with SR leukemia is 30.3 µM; in the experiment with SK-MEL-28 melanoma, > 100 µM; in the experiment with SK-MEL-5 melanoma, > 100 µM. Further, the total growth inhibition concentration (TGI) with NCI/ADR-RES ovarian, in the experiment with UACC-257 melanoma, in the experiment on M14 melanoma, with RPMI-8226 leukemia, with NCI-H460 lung and in the experiment on MCF7 breast was > 100 µM in each case. Also, the total growth inhibition concentration (TGI) in the experiment on SR leukemia, in the experiment with SK-MEL-28 melanoma and with SK-MEL-5 melanoma was > 100 µM in each case.

On to `O=C1c2ccccc2-c2c1c1ccccc1c(=O)n2CCCCNCCCn1c2c(c3ccccc3c1=O)C(=O)c1ccccc1-2`, for which the GI50 in the experiment with NCI/ADR-RES ovarian was 0.582 µM; in the experiment on UACC-257 melanoma, 3.23 µM; with M14 melanoma, 0.76 µM; with RPMI-8226 leukemia, 0.0193 µM; in the experiment on NCI-H460 lung it was 0.0484 µM; with MCF7 breast, 0.345 µM. In addition, the concentration for 50% growth inhibition (GI50) in the experiment on SR leukemia is 0.005 µM; in the experiment on SK-MEL-28 melanoma, 2.95 µM; with SK-MEL-5 melanoma, 0.529 µM. The concentration for total growth inhibition (TGI) with NCI/ADR-RES ovarian was 1.72 µM; in the experiment on UACC-257 melanoma, 13.8 µM; with M14 melanoma, 4.18 µM; with RPMI-8226 leukemia, 0.755 µM; in the experiment with NCI-H460 lung, 0.687 µM; with MCF7 breast it was 6.25 µM. Further, the total growth inhibition concentration (TGI) amounted to 0.0273 µM with SR leukemia, 34.8 µM in the experiment on SK-MEL-28 melanoma and 1.49 µM in the experiment with SK-MEL-5 melanoma.
